Test results as given in article PMC3601065 (PLoS ONE, 2013).
Where no end group is shown, it is not given here.

Assays:
HLA-A*0201 = HLA-A*0201 (Homo sapiens, UniProt P04439, D140Y/D185E/D98H/E176V/E277Q/G131W/G231S/I119V/I121R/I166T/I218V/L300P/L318F/N151K/N90K/P208A/P217A/Q86G/Q94H/R138H/R169H/T345S); assay: biochemical; format: binding

For ILDAHSLYL [IL9], the “cytotoxicity of peptide-specific CD8^+ T cells” value (T2 target cells) was “highly cytotoxic” and the IC50 (HLA-A*0201) was 1.3 nM.

With VLSEWLPVT [VT9] the “cytotoxicity of peptide-specific CD8^+ T cells” value (T2 target cells) was “highly cytotoxic” and the IC50 (HLA-A*0201) was 15 nM.
